Experimental data: patent US9238039B2, “Pyrazolo[1,5-A]pyrimidines for antiviral treatment” (Gilead Sciences, Inc., priority 2010, dated 2016)

System: RSV strain A2
Experiment: RSV antiviral cytoprotection assay in Hep2 cells (96-well and 384-well format, Cell TiterGlo read-out)
Format: cell-based, Respiratory Syncytial Virus (RSV)
Settings: for inhibition at 0.5 µM: HEp-2, 0.5 uM; for EC50: Hep2 cells, class symbols; for inhibition at 1 µM: HEp-2, 1 uM
[1] = human respiratory syncytial virus, RSV-induced cytopathic effect in Hep2 cells, calculated from fitted dose response curve, normalized to 0% and 100%
[2] = human respiratory syncytial virus, HEp-2, RSV-induced cytopathic effects

Compound	EC50 [2] [nM]	EC50 (RSV-induced cytopathic effects) [nM]	inhibition at 0.5 µM [1] [%]	inhibition at 1 µM [1] [%]	% inh @ 0.5 uM (0.5 uM, RSV-induced cytopathic effect in Hep2 cells, calculated from fitted dose response curve, normalized to 0% and 100%) [%]
Cc1cn2nc([C@@H]3CCCCN3C(=O)c3cc(C)n(C)n3)cc2nc1N1CC[C@H](N)C1 [Compound 280]	101 to 1000		60		
COc1cc(F)ccc1C(=O)N1CCCC[C@H]1c1cc2nc(N3CC[C@H](N)C3)c(C)cn2n1 [Compound 330]	101 to 1000		68		
Cc1cn2nc([C@@H]3CCCCN3C(=O)c3ccc(F)c(C)c3Cl)cc2nc1N1CC[C@H](N)C1 [Compound 380]	101 to 1000		80		
CS(=O)(=O)Nc1ccc(Cl)cc1C(=O)N1CCCC[C@H]1c1cc2nc(N3CCC3)cc(N3CCCCN3)n2n1 [Compound 252]	0.1 to 100		92		
Cc1cccc(NS(C)(=O)=O)c1C(=O)N1CCCC[C@H]1c1cc2[nH]c(C)c(C)c(=O)n2n1 [Compound 32]	0.1 to 100		99		
Cc1cn2nc([C@@H]3CCCCN3C(=O)c3ccc(OC(F)F)cc3)cc2nc1N1CC[C@H](N)C1 [Compound 378]	101 to 1000		48		
Cc1cn2nc([C@@H]3CCCCN3C(=O)c3cc(Cl)ccc3NS(C)(=O)=O)cc2nc1N1C[C@@H](N)C[C@H]1CO [Compound 211]	0.1 to 100		100		
CC(=O)Nc1ccc(Cl)cc1C(=O)N1CCCC[C@H]1c1cc2nc(C3CC3)cc(C)n2n1 [Compound 66]	0.1 to 100		99		
CS(=O)(=O)Nc1ccc(Cl)cc1C(=O)N1CCCC[C@H]1c1cc2nc(N3CCC3)cc(N3CC[C@H](N)C3)n2n1 [Compound 227]	0.1 to 100		100		
CCC(=O)Nc1nonc1C(=O)N1CCCC[C@H]1c1cc2nc(N3CC[C@H](N)C3)c(C)cn2n1 [Compound 372]	101 to 1000		38		
Cc1cn2nc([C@@H]3CCCCN3C(=O)c3ccc(Cl)cc3Cl)cc2nc1N1CC[C@H](N)C1 [Compound 390]	101 to 1000		86		
CCn1nc(C(=O)N2CCCC[C@H]2c2cc3nc(N4CC[C@H](N)C4)c(C)cn3n2)cc1C [Compound 301]	0.1 to 100		100		
Cc1cccc(C(=O)N2CCCC[C@H]2c2cc3nc(N4CC[C@H](N)C4)c(C)cn3n2)n1 [Compound 273]	0.1 to 100		100		
CS(=O)(=O)Nc1ccc(Cl)cc1C(=O)N1CCCC[C@H]1c1cc2nc(N3CCC3)cc(N3CCNC(C(F)(F)F)C3)n2n1 (stereo partly shown) [Compound 159]	0.1 to 100		100		
Cc1cn2nc([C@@H]3CCCCN3C(=O)c3ccccc3OC(F)F)cc2nc1N1CC[C@H](N)C1 [Compound 379]	0.1 to 100		100		
Cc1cc(C(=O)N2CCCC[C@H]2c2cc3nc(N4CC[C@H](N)C4)c(C)cn3n2)n(C(F)F)n1 [Compound 354]	101 to 1000		87		
Cc1cn2nc([C@@H]3CCCCN3C(=O)c3ccn(CC(F)F)n3)cc2nc1N1CC[C@H](N)C1 [Compound 356]	0.1 to 100		100		

Compound	EC50 [2] [nM]	EC50 (RSV-induced cytopathic effects) [nM]	inhibition at 0.5 µM [1] [%]	inhibition at 1 µM [1] [%]	% inh @ 0.5 uM (0.5 uM, RSV-induced cytopathic effect in Hep2 cells, calculated from fitted dose response curve, normalized to 0% and 100%) [%]
CC(=O)c1cccc(C(=O)N2CCCC[C@H]2c2cc3nc(N4CC[C@H](N)C4)c(C)cn3n2)c1 [Compound 318]	0.1 to 100		100		
Cc1cn2nc([C@@H]3CCCCN3C(=O)c3cc(Cl)ccc3NS(C)(=O)=O)cc2nc1N1C[C@H](O)[C@@H](O)C1 [Compound 197]	0.1 to 100		100		
Cc1cc(C2CC2)nc2cc([C@@H]3CCCCN3C(=O)[C@](C)(NS(C)(=O)=O)c3ccccc3)nn12 [Compound 240]	101 to 1000		71		
Cc1[nH]c2cc([C@@H]3CCCCN3C(=O)c3ccccc3NC(=O)OC(C)(C)C)nn2c(=O)c1C [Compound 2]	101 to 1000		36	46	
Cc1cn2nc([C@@H]3CCCCN3C(=O)c3cc(Cl)ccc3NS(C)(=O)=O)cc2nc1N1CC[C@H](N)C1 [Compound 202]	0.1 to 100		100		
Cc1cn2nc([C@@H]3CCCCN3C(=O)c3c(Cl)c(C)nn3C)cc2nc1N1CC[C@H](N)C1 [Compound 348]	0.1 to 100		99		
Cc1cn2nc([C@@H]3Cc4ccccc4CN3C(=O)c3cc(Cl)ccc3NS(C)(=O)=O)cc2nc1N1CC[C@H](N)C1 [Compound 176]	0.1 to 100		100		
Cc1cc(C2CC2)nc2cc([C@@H]3CCCCN3C(=O)C(c3ccccc3)N(C)C)nn12 (stereo partly shown) [Compound 239]	101 to 1000		36		
Cc1ccc(NS(C)(=O)=O)c(C(=O)N2CCCC(C)C2c2cc3[nH]c(C)c(C)c(=O)n3n2)c1 (stereo not shown) [Compound 37]		0.1 to 100			100
Cc1[nH]c2cc([C@@H]3CCCCN3C(=O)c3cc(F)ccc3NS(C)(=O)=O)nn2c(=O)c1F [Compound 19]	101 to 1000		67	84	
COC1CN(c2nc3cc([C@@H]4CCCCN4C(=O)c4cc(Cl)ccc4NS(C)(=O)=O)nn3cc2C)CC1N (stereo partly shown) [Compound 167]	0.1 to 100		100		
CS(=O)(=O)Nc1ccc(Cl)cc1C(=O)N1CCCC[C@H]1c1cc2nc(N3CCC3)cc(N3CC(O)C3)n2n1 [Compound 56]	0.1 to 100		100		
CS(=O)(=O)Nc1ccc(Cl)cc1C(=O)N1CCCC[C@H]1c1cc2nc(N3CCC3)cc(N3CCN[C@@H](CF)C3)n2n1 [Compound 162]	0.1 to 100		100		
Cc1cn2nc([C@@H]3CCCCN3C(=O)c3cccc4c3ccn4C)cc2nc1N1CC[C@H](N)C1 [Compound 349]	0.1 to 100		100		
Cc1cn2nc([C@@H]3CCCCN3C(=O)c3nonc3NCCO)cc2nc1N1CC[C@H](N)C1 [Compound 342]	101 to 1000		79		
Cc1cn2nc([C@@H]3CCCCN3C(=O)c3cc(CC(C)C)nn3C)cc2nc1N1CC[C@H](N)C1 [Compound 368]	101 to 1000		58		
COc1cccc(C(=O)N2CCCC[C@H]2c2cc3nc(N4CC[C@H](N)C4)c(C)cn3n2)c1O [Compound 325]	0.1 to 100		98		

Now from value to compound, other results behind:

EC50 [2] [nM]	EC50 (RSV-induced cytopathic effects) [nM]	Compound	inhibition at 0.5 µM [1] [%]	inhibition at 1 µM [1] [%]	% inh @ 0.5 uM (0.5 uM, RSV-induced cytopathic effect in Hep2 cells, calculated from fitted dose response curve, normalized to 0% and 100%) [%]
0.1 to 100		Cc1cc(C(=O)N2CCCC[C@H]2c2cc3nc(N4CC[C@H](N)C4)c(C)cn3n2)c2cnn(C)c2n1 [Compound 393]	99		
0.1 to 100		Cc1cn2nc([C@@H]3CCCCN3C(=O)c3c4c(nn3C)CCCC4)cc2nc1N1CC[C@H](N)C1 [Compound 367]	94		
0.1 to 100		Cc1cn2nc([C@@H]3CCCCN3C(=O)c3cc(Cl)ccc3NC(=O)OC(C)C)cc2nc1N1CC[C@H](N)C1 [Compound 249]	86		
0.1 to 100		COC(=O)NC(C(=O)N1CCCC[C@H]1c1cc2nc(C3CC3)cc(C)n2n1)c1ccccc1 (stereo partly shown) [Compound 118]	99		
0.1 to 100		Cc1cn2nc([C@@H]3CCCCN3C(=O)c3ccc(F)c(F)c3O)cc2nc1N1CC[C@H](N)C1 [Compound 346]	100		
0.1 to 100		Cc1cc(C2CC2)nc2cc([C@@H]3CCCCN3C(=O)c3cc(F)c(F)cc3NS(C)(=O)=O)nn12 [Compound 117]	99		
0.1 to 100		Cc1cccc(C(=O)N2CCCC[C@H]2c2cc3nc(N4CC[C@H](C#N)C4)c(C)cn3n2)c1 [Compound 152]	100		
0.1 to 100		CCCn1nc(C)cc1C(=O)N1CCCC[C@H]1c1cc2nc(N3CC[C@H](N)C3)c(C)cn2n1 [Compound 329]	98		
0.1 to 100		Cc1cn2nc([C@@H]3CCCCN3C(=O)c3nc4ccccn4c3F)cc2nc1N1CC[C@H](N)C1 [Compound 363]	99		
0.1 to 100		Cc1cc(C2CC2)nc2cc([C@@H]3CCCCN3C(=O)c3cc(Br)ccc3NS(C)(=O)=O)nn12 [Compound 122]	99		
0.1 to 100		CCc1ocnc1C(=O)N1CCCC[C@H]1c1cc2nc(N3CC[C@H](N)C3)c(C)cn2n1 [Compound 284]	97.8		
0.1 to 100		CCn1nccc1C(=O)N1CCCC[C@H]1c1cc2nc(N3CC[C@H](N)C3)c(C)cn2n1 [Compound 278]	99		
0.1 to 100		Cc1cn2nc([C@@H]3CCCCN3C(=O)c3cc4c(s3)CCCC4)cc2nc1N1CC[C@H](N)C1 [Compound 370]	99		
0.1 to 100		C#Cc1cccc(C(=O)N2CCCC[C@H]2c2cc3nc(N4CC[C@H](N)C4)c(C)cn3n2)c1 [Compound 289]	100		
0.1 to 100		Cc1cn2nc([C@@H]3CCCCN3C(=O)c3ccnc(Cl)c3F)cc2nc1N1CC[C@H](N)C1 [Compound 352]	100		
0.1 to 100		Cc1cn2nc([C@@H]3CCCCN3C(=O)c3cc(Cl)ccc3Cl)cc2nc1N1CC[C@H](N)C1 [Compound 391]	99		
0.1 to 100		Cc1cn2nc([C@@H]3CCCCN3C(=O)c3cc(Cl)ccc3NS(C)(=O)=O)cc2nc1N1CC(C)(O)C1 [Compound 96]	97		
0.1 to 100		COc1ccsc1C(=O)N1CCCC[C@H]1c1cc2nc(N3CC[C@H](N)C3)c(C)cn2n1 [Compound 308]	100		
0.1 to 100		Cc1ccn2c(F)c(C(=O)N3CCCC[C@H]3c3cc4nc(N5CC[C@H](N)C5)c(C)cn4n3)nc2c1 [Compound 403]	100		
0.1 to 100		CNC1CCN(c2nc3cc([C@@H]4CCCCN4C(=O)c4cc(Cl)ccc4NS(C)(=O)=O)nn3cc2C)C1 (stereo partly shown) [Compound 78]	98		
0.1 to 100		Cc1cn2nc([C@@H]3CCCCN3C(=O)c3ccc(Cl)c(Cl)c3)cc2nc1N1CC[C@H](N)C1 [Compound 392]	95		
